Laboratory results from patent US10682341B2, “Method for treating obesity, diabetes, cardiovascular and kidney diseases by regulating GPR30/GPER activity” (STC.UNM, priority 2015, dated 2020).
“Also recorded” adds a separate entry of the source.

Tests used:
[1] = test system: AMP-activated protein kinase (AMPK); assay: AMPK activation in differentiated murine adipocytes; type: cell-based, mouse
Method: (§1) Mouse fibroblasts, NIH 3T3-L1 cells were grown in DMEM with 10% FBS and subcultured before reaching 70% confluence. For differentiation, cells were seeded in 24 well plates or 60 mm dishes and allowed to grow till confluent. Subsequently medium was changed and cells were kept for additional two days before adding the differentiation cocktail in the medium (0.5 mM isomethylbutylxanthine, 1 μM dexamethasone and 10 μg/mL insulin) for 3 days (with or without GPER selective agonist G-1). The medium was then changed to the regular DMEM with FBS as above.
Tissues were homogenized in RIPA buffer supplemented with sodium fluoride (50 mM), sodium orthovanadate (1 mM), phenylmethylsulfonylfluoride (1 mM), and protease cocktail. Protein amounts were quantified by Bradford method and equal amounts (30 μg) of protein were loaded for all the samples on 4-20% SDS-PAGE gel. Proteins were then transferred to polyvinylidene fluoride membrane, blocked with 3% newborn calf serum in TBST before overnight incubation with primary antibodies. Subsequently, blots were incubated with secondary HRP-conjugated antibodies and developed using SuperSignal West Pico Chemiluminescent Substrate. Blots were then scanned and quantified using ImageJ software.

[2] = test system: C2C12 cells; assay: Glucose uptake in differentiated C2C12 myocytes; type: cell-based, mouse
Method: (§2) For human adipocytic differentiation, human preadipocytes were purchased from Zen-Bio and differentiated with or without GPER-selective agonist G-1. Mouse myoblasts, C2C12 were grown in low glucose DMEM with 10% FBS and subcultured before reaching 70-80% confluence. For differentiation into myocytes, cells were seeded on 12-well plates and at confluence were switched to DMEM containing 2% horse serum. The medium was changed every other day and cells were used for glucose uptake assay between 6-8 days post differentiation.
Differentiated C2C12 cells were washed twice with Krebs-Ringer phosphate buffer and incubated in serum free low glucose DMEM for 3 hours. Cells were then treated with 100 nM insulin for 15 min and subsequently incubated in Krebs-Ringer phosphate buffer containing […] of 2-deoxy-d-[^3H]glucose for 20 min. The reaction was terminated by adding ice-cold PBS on plates on ice. After three washes with PBS, the cells were dissolved in 0.1% sodium dodecyl sulfate and radioactivity was quantified by liquid scintillation counting. Nonspecific deoxyglucose uptake was measured in the presence of […] cytochalasin B and was subtracted from the total uptake to get specific glucose uptake.

[3] = test system: high fat diet male mice; assay: Diet induced obesity (high fat diet) male mouse model; type: in vivo; conditions: HFD males
From the text: (§3) For females, an ovariectomized female mouse model, with ovary-intact control animals, fed a regular chow diet, was employed. Loss of the ovaries results in the loss of endogenous estrogenic protection towards metabolic pathophysiology and weight gain, resulting in increased overall weight gain, abdominal adiposity and ensuing metabolic (including glucose and lipid) dysfunction in ovariectomized mice compared to ovary-intact control animals. For males, the model employed involves diet-induced obesity. In the absence of the estrogenic protection as in female mice, male mice fed a high fat chow gain weight and suffer from metabolic pathophysiology compared to mice on normal chow. […].
(§4) For measurement of food intake, activity and energy expenditure, mice were placed in metabolic cages. All measurements were obtained using a computer-controlled indirect calorimetry system. Prior to data collection, mice were acclimatized in the chambers for 24 hours, after which data was collected for the subsequent 48 hours, including two complete light cycles (14 h) and two complete dark cycles (10 h). Oxygen consumption (VO2), carbon dioxide production (VCO2), activity and food consumption were measured for 48 hours. The animals had ad libitum access to standard rodent chow or high fat chow and water during the study. To detect ambulatory activity and position, beam breaks in all the three planes, X, Y and Z directions, were utilized to obtain total activity. To calculate oxygen consumption (VO2) and carbon dioxide production (VCO2) were assessed by measuring the gas concentrations at the inlet and outlet of the sealed chambers.
(§5) Post euthanasia, tissues (epididymal/perirenal fat, liver) were dissected and weighed. Tibia length was measured after clearing of soft tissue. For H&E staining, at sacrifice, tissues were fixed in buffered formalin for 24 hours and subsequently embedded in paraffin. Tissue sections (5 μm-thick) were stained with Hematoxylin and Eosin.
(§6) Prior to GTT and ITT, mice were fasted for 4 hours and basal glucose (0 min) was measured. Subsequently, mice were intraperitoneally injected with glucose (2 g/kg body weight) or insulin (0.5 U/kg body weight). After the injection, blood glucose was monitored at regular time intervals (15, 30, 60 and 120 min after injection) from tail nicks. Additionally, for measuring the fasting insulin, blood was collected from the tail nicks at 0 time point and plasma was separated and used for measuring the fasting insulin using a mouse Insulin ELISA kit. Blood glucose was monitored using a glucose meter.

[4] = test system: PPARγ and ap2; assay: Expression of adipogenic markers in 3T3-L1 cells; type: cell-based, mouse; conditions: 3T3-L1 cells differentiated in the presence of G-1
Method: as §1
(§7) Total RNA was extracted from frozen tissues (˜100 mg) or cultured cells using the RNeasy Mini Kit. Isolated RNA (˜100 ng) was used for cDNA synthesis using the ImProm-II™ Reverse Transcription System in a final reaction volume of 20 μL in a denaturation and extension cycle. Subsequently, quantitative real time PCR was carried out in a 7500 Fast Real-Time PCR System. Gene expression was normalized to 18S RNA as an internal reference and fold change over the control was calculated using the ddCt method. Quantitative real-time PCR analyses were performed in triplicate from a minimum of 5 separate animals.

[5] = test system: 3T3-L1 cells; assay: Lipid accumulation in 3T3-L1 adipocytes (Oil Red O staining); type: cell-based, mouse; conditions: 3T3-L1 murine adipocytes, G-1 during differentiation
Method: as §1
(§8) Eight days after differentiation, adipocytes are briefly rinsed with PBS and fixed in 4% PFA for 30-60 min and washed with PBS. Freshly prepared Oil Red-O working solution was added to cells and incubated for ˜60 min at room temperature, washed t 3 times with PBS and air dried. Images were acquired or lipids extracted with isopropanol and absorbance at 520 nm to quantitate the lipids measured.

[6] = test system: ovariectomized female mice; assay: Ovariectomized female mouse model of obesity and diabetes; type: in vivo; conditions: OVX females
From the text: as §3, §4, §5, §6, §7

[7] = test system: human adipocytes; assay: Lipid accumulation in human adipocytes (Oil Red O staining); type: cell-based; conditions: G-1 during differentiation
Method: as §2, §8

[8] = test system: differentiated murine adipocytes; assay: Mitochondrial biogenesis in differentiated murine adipocytes; type: cell-based, mouse
Method: as §1

CC(=O)c1ccc2c(c1)C1C=CCC1C(c1cc3c(cc1Br)OCO3)N2 (centres unmarked) [G-1]
AMPK activation [1]: activated AMP-activated protein kinase (AMPK); also recorded: activates AMPK | cellular uptake of glucose [2]: increased the cellular uptake of glucose; also recorded: increases glucose uptake | fasting glucose levels [3]: lower fasting glucose levels; also recorded: decreases fasting blood glucose | glucose tolerance (glucose tolerance test) [3]: improves glucose tolerance | insulin sensitivity (insulin tolerance test) [3]: improved insulin sensitivity; also recorded: enhances insulin sensitivity | total body weight ([3]; G-1 200 μg, 5 days per week, subcutaneously for 8 weeks vs vehicle): attenuates weight gain; also recorded: decrease in the total body weight | liver weights ([3]; after 8 week treatment): significant decrease in liver weights; also recorded: lower | perirenal adipose fat pad weights ([3]; after 8 week treatment): significant decrease; also recorded: lower | energy expenditure (O2 consumption) ([3]; metabolic cages): increase in O2 consumption; also recorded: increased energy expenditure | expression of adipogenic markers PPARγ and ap2 [4]: lower levels of adipogenic markers; also recorded: down regulates | lipid accumulation [5]: decreased lipid accumulation; also recorded: inhibits lipid accumulation | adipocyte size in perigonadal fat (H&E staining) [6]: smaller adipocytes | antioxidant markers in muscle and liver [6]: increases antioxidant markers | fasting glucose levels [6]: lower fasting glucose levels; also recorded: decreases fasting blood glucose | glucose tolerance (glucose tolerance test) [6]: improves glucose tolerance | insulin sensitivity (insulin tolerance test) [6]: enhances insulin sensitivity | total body weight ([6]; G-1 200 μg, 3 days per week, subcutaneously for 6 weeks vs vehicle): attenuates weight gain; also recorded: decrease in the total body weight | weights of perigonadal fat pads ([6]; after 6 week treatment): decreased weights of perigonadal fat pads; also recorded: lower | mRNA levels of pro-inflammatory, angiogenic and lipogenic markers in adipose tissue ([6]; gonadal fat, quantitative PCR): lower; also recorded: reduces inflammatory, angiogenic and lipogenic markers | energy expenditure (O2 consumption) ([6]; metabolic cages): increase in O2 consumption; also recorded: increased energy expenditure | pro-inflammatory and lipogenic markers in skeletal muscle and liver ([6]; quantitative PCR): decreased pro-inflammatory and lipogenic markers; also recorded: reduces lipogenic and inflammation | lipid accumulation [7]: decreased lipid accumulation; also recorded: inhibits lipid accumulation | mitochondrial biogenesis [8]: increased the mitochondrial biogenesis; also recorded: increases mitochondrial biogenesis
